Assay results taken from patent US11628186B2, “Method and composition for the reduction of viral replication, duration and spread of the COVID-19 and the flu” (priority 2017, dated 2023).

Legend:
[1] = test system: COPD patients with Allergic Rhinitis; test: 20 mM sodium pyruvate nasal sprays over three months (Table VI); assay type: in vivo, human; conditions: 20 mM nasal spray
[2] = test system: isolated perfused rat lungs; test: Incorporation of [2-(14)C] labeled pyruvate into lung surfactants; conditions: inhalation studies, without calcium, phosphate and magnesium
[3] = test system: patients with or without lung damage; test: Controlled inhalation studies of 20 mM sodium pyruvate in saline; assay type: in vivo, human
Protocol: Sodium chloride is mainly used as nasal or lung moisturizer. […] They produce no change to FEV-1 or SaO2 measurements. It must be noted that there is a difference between people who have transient hypoxemia vs. one that has permanent hypoxemia. The patients respond differently to the inhalation of 20 mM sodium pyruvate in saline by itself without calcium, phosphate and magnesium. Sodium pyruvate formulations both given orally or by inhalation will increase SaO2 levels in people without lung injury to the alveoli structure especially the mitochondria that can synthesis the phospholipids needed for oxygen exchange and uptake. Transient hypoxemia is a self-correcting effect. It occurs in over exercising, mountain climbing etc. […] In patients with infections, i.e. CF and allergic Rhinitis, Nitric Oxide increase by over 400% over base line measurements with the use of the sodium pyruvate, calcium, phosphate and magnesium formula, needed to fight infections and lung cancer (see table IV).

[4] = test system: patients suffering from severe lung injury or mitochondrial damage or COPD and Hypoxemia; test: Two months nebulized treatment, lung capacity; assay type: in vivo, human; conditions: phosphate and magnesium
Source text: Total lung capacity is the volume in the lungs at maximal inflation, the sum of VC and RV. RV is the residual volume of air remaining in the lungs after a maximal exhalation. VC vital capacity is the volume of air breath out after the deepest inhalation. Vital capacity in males is 4.8 liters and in women 3.8 liters. Slow vital capacity (SVC) is the maximum volume of air that can be exhaled slowly after slow maximum inhalation. Three male patients suffering from severe lung injury or mitochondrial damage or COPD and Hypoxemia were treated as described below for two (2) months. […] In fact, dramatic results were observed within two (2) weeks.
[…] The sterile pyruvate 15 solution is placed into a “Pulmo Aid” nebulizer manufactured by DeVilbiss Co., Somerset, Pa. 15501-0635. The sterile pyruvate solution is nebulized by the Pulmo Aid device fitted with a disposable nebulizer and inhaled by the patient. The patient inhales normally from the Pulmo Aid nebulizer until all of the solution has been nebulized and inhaled. This inhalation step typically takes about ten (10) to twenty 20 (20) minutes. The patients were treated with this inhalation therapy periodically. Initially, treatments are about four (4) times a day at about six (6) hour intervals. Treatments were reduced to three (3) times a day at about eight (8) hour intervals after 20 days of therapy. […]

[5] = test system: patients with various cancers and chronic Hypoxemia; test: Cancer trial pilot study; assay type: in vivo, human; conditions: in saline, without calcium, phosphate and magnesium
Protocol: In eleven patients with various cancers and chronic Hypoxemia, five with lung cancer, including three with non-small cell lung cancer and six with various other cancers, […], which increased SaO2 levels in these patients to enhance the effect of the chemotherapy or radiation, and increased the synthesis of lung surfactants in lung alveoli cells to protect normal cells and help reduce hypoxia in cancer cells. These patients inhaled the formula one to two hours before they were treated with cancer drugs or radiation, given by current standard methods, and continued to inhale the surfactant enhancer formula twice a day for the eight weeks following the chemo therapy treatment. Because these patients are older, they often lack good nutritional eating habits, which effects their immune system. Thus, the patients were also given a proprietary diet high in a unique blend of antioxidants, and nutrients, that they consumed every day before and after chemo or radiation. Good nutrition is always a plus when patients undergo chemo or radiation as sited in numerous published articles. The diet specifically designed for patients with cancer and hypoxemia included calcium pyruvate, dicalcium phosphate and magnesium in their components. […]

CC(=O)C(=O)[O-].[Na+] [Sodium, sodium pyruvate]
Overall Rating 1-10 [1]: 7
Percentage decrease in COPD symptoms [1]: 18.0%
Percentage decrease in us of RX medications [1]: 20%
Rating 1-10 Congestion and lung tightness [1]: 5
Rating 1-10 decrease in shortness of breath [1]: 6.0
Relief of coughing. Percentage Daily decrease [1]: 15%
incorporation into synthesized phospholipids [2]: not incorporated into synthesized phospholipids
SaO2 levels ([3]; Patients with lung damage, like in smokers, 20 mM without calcium, phosphate and magnesium): did not show an increase SaO2 levels
increase of SaO2, average ([3]; patients with no lung injuries or disease, after exercising, 20 mM in saline): 3%
improvement in SaO2 levels ([4]; one of the three patients, end of the two months, without calcium): 3%
improvement in lung functions, especially total lung capacity ([4]; same three patients, formulas without the calcium): no or little improvement in lung functions
raises nitric oxide [5]: 19%
